A short description of data set [1]: Human liver microsomal stability screen. Conditions: Human liver microsomes. On the technique in general: Microsomes from liver hold many membrane-bound enzymes, among them those of drug oxidation.
Data set [2] in a line: Mouse liver microsomal stability screen. As to conditions: Mouse liver microsomes.
In another data set the target is CYP2D6 (Homo sapiens, UniProt P10635). Description: CYP inhibition screening, CYP2D6. The class given is in vitro ADME.
Data set [3] relates to AEP. Description: AEP activity in OGD-treated primary neurons. The class given is cell-based. Conditions: 0.1 μM or 1.0 μM compound, 5 μM Cbz-Ala-Ala-Asn-AMC. The method, then:
(§1) A. AEP activity, measured in primary neuronal cultures with 5 μM Cbz-Ala-Ala-Asn-AMC (x-axis denotes neurons were treated with 0.1 μM or 1.0 μM specified compound). B. Caspase activity, measured in primary neuronal cultures with 5 μM Ac-Asp-Glu-Val-Asp-AMC. C. Cathepsin activity, measured in primary neuronal cultures with 5 μM D-Val-Leu-Lys-AMC. D. Inhibition of APP cleavage. Lysates of primary cortical neurons pre-incubated with compounds for 30 min, underwent OGD for 4 hrs, were reperfused for 18 hrs (normoxia neurons remained at normoxic conditions). E. APP can be cleaved in a dose-dependent manner. Lysates of primary cortical neurons pre-incubated with compounds for 30 min, underwent OGD for 4 hrs, were reperfused for 18 hrs (normoxia neurons remained at normoxic conditions).
Depriving cells of oxygen and glucose is a cellular model that is employed to trigger acidosis in cultured cells. The efficacy of the compounds in a cellular model of oxygen-glucose deprivation (OGD) was determined in an effort to mimic the effects of stroke in primary cultured neurons. As a result of depriving neurons of oxygen and glucose-containing medium, AEP activity was doubled (FIG. 7A, ‘DMSO-Norm’ compared to ‘DMSO-OGD’), while Caspase-3 and Cathepsin activities remained relatively unchanged. […]

The test system of data set [4] is amyloid precursor protein (APP) cleavage. Description: APP cleavage in OGD-treated primary cortical neurons. Format: cell-based. The procedure: as §1
Depriving cells of oxygen and glucose is a cellular model that is employed to trigger acidosis in cultured cells. The efficacy of the compounds in a cellular model of oxygen-glucose deprivation (OGD) was determined in an effort to mimic the effects of stroke in primary cultured neurons. As a result of depriving neurons of oxygen and glucose-containing medium, AEP activity was doubled (FIG. 7A, ‘DMSO-Norm’ compared to ‘DMSO-OGD’), while Caspase-3 and Cathepsin activities remained relatively unchanged. […] Cleavage of APP is observed in response to only DMSO treatment (FIG. 7D, lane 2), and it appears that upon the treatment of 1 μM of compounds 10, 11, and 12, and just 0.1 μM of compound s31, 38 and 64, the cleavage was blocked, presumably due to AEP inhibition.

In another data set the test system is CYP3A. Description: CYP inhibition screening, CYP3A-Testosterone. Format: in vitro ADME.
The next data set addresses T1, CYP1A2 (Homo sapiens, UniProt P05177).
T1 sequence (P05177 1-516): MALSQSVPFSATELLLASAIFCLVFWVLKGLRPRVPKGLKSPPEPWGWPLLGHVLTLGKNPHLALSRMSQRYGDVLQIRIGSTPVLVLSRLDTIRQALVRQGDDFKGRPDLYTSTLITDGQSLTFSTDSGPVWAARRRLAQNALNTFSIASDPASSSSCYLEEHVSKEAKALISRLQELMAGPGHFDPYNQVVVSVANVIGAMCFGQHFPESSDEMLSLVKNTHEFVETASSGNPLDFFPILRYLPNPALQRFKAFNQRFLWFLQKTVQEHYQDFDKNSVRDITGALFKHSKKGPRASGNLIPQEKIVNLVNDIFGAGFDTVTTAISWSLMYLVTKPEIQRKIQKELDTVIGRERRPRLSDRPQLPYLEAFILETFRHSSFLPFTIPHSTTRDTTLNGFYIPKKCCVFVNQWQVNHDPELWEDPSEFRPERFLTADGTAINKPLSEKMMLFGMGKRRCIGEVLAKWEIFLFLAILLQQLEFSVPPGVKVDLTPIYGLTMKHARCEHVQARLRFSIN
Description: CYP inhibition screening, CYP1A2. Format: in vitro ADME.

A further data set relates to Caco-2 monolayer. Description: Caco-2 monolayer permeability screen. As to conditions: Table 1. For orientation: Passage across Caco-2 layers is used to estimate intestinal permeability.
Data set [5] in a line: BBB-PAMPA permeability assay. Format: in vitro ADME. (PAMPA measures passive passage across an artificial lipid membrane.)
The next data set addresses CYP2C9 (Homo sapiens, UniProt P11712). Description: CYP inhibition screening, CYP2C9. Format: in vitro ADME.
The next data set has as its target CYP3A4 (Homo sapiens, UniProt P08684). Description: CYP inhibition screening, CYP3A4-Midazolam. Format: in vitro ADME.
A further data set has as its target CYP2C19 (Homo sapiens, UniProt P33261). Description: CYP inhibition screening, CYP2C19. The class given is in vitro ADME.
The target in data set [6] is T2, endogenous AEP in human B lymphoblastoid pala cells (Homo sapiens, UniProt Q99538).
T2 construct: human B lymphoblastoid pala cells, which are rich in endogenous AEP; endogenous in cells; host or cells: human B lymphoblastoid Pala cells
T2 sequence (Q99538 18-323): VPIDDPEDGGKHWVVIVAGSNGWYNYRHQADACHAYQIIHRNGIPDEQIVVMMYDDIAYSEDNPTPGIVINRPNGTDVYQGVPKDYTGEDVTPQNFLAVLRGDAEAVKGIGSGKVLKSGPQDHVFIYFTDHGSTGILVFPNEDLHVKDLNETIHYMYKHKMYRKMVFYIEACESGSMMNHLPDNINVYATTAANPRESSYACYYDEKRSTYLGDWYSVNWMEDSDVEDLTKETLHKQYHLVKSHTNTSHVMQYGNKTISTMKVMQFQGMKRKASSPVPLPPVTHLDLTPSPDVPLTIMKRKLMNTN
Description: AEP inhibition in intact Pala cells. Conditions: 2 hrs incubation, residual enzymatic activity in lysate. The class given is cell-based. The method, then:
The cells were incubated with inhibitors for 2 hrs then cells washed, harvested and lysed and the residual enzymatic activity was determined. Lysate was normalized by Bradford assay and the experiment was performed in triplicate and the mean results and SEM were plotted.
In an attempt to assess the activity of the compounds in intact cells, the compounds were incubated with human B lymphoblastoid pala cells, which are rich in endogenous AEP and have been used for inhibiting AEP in cellular assay.

In data set [7] the target is T3, AEP (Homo sapiens, UniProt Q99538).
T3 construct: tested with purified active AEP, IC50 values for the top 8 candidates were found
T3 sequence (Q99538 18-323 limits assumed): T2 sequence (Q99538 18-323)
Description: Inhibition kinetics assays (steady-state, Z-AAN-AMC). Format: biochemical. Conditions: competitive inhibition. The procedure:
(§2) KI values for each inhibitor were determined by global fits to the competitive inhibition equation. C. Time course inactivation assays were used to generate progress curves, depicting product formation as a function of time. […] E. Time course inactivation assays were used to generate progress curves, depicting product formation as a function of time. Pseudo first-order rate constants were obtained at each concentration of compound BB1. F. Re-plot of the pseudo first-order rate constants, kobs, vs. the concentration of compound BB1.
(§3) A. Michaelis-Menten plots displaying competitive inhibition of AEP. The inhibition constant, K1, was determined from the globally fit data. B. Double reciprocal Lineweaver-Burk plots also displaying competitive inhibition. C. […] DC. A plot of the corrected kobs values obtained from each curve in (B) versus the concentration of compound 38, which enabled the calculation of the second-order rate constant, kinact/KI to be determined to measure the potency of the inhibitor.
To determine the inhibition constants and the mechanism by which compound 38 inhibits AEP, the steady-state kinetic parameters for the hydrolysis of the peptide substrate, Z-AAN-AMC, were determined in the absence or presence of increasing concentrations of inhibitor. In these assays, specified concentrations of the inhibitor were pre-incubated with substrate for 10 min at 37° C., then 50 nM AEP was added to initiate the reaction, which was quenched after 10 min. […]
In the equations, Kii is the intercept Ki, and Kis is the slope Ki. The mode of the inhibition induced by the compounds on AEP was determined by the best fit of the data to equations 1-4. […]

In data set [8] the target is T3, AEP. Description: DTT / L-cysteine reversibility of AEP inhibition. Format: biochemical. As to conditions: 10 mM DTT or L-cysteine added after 15 min. The procedure:
AEP was reacted with specified inhibitor, after 15 min 10 mM DTT or L-cysteine was added to the reaction and the fluorescent signal was read for an additional 15 min. At the end of the second 15 min incubation, the percentage of product formed in the presence of each compound was determined in comparison to the DMSO control reaction.
Although it is not intended that embodiments of this disclosure be limited by any particular mechanism, to gain additional insight into the mechanism utilized by the inhibitors for abrogation of AEP activity, their reversibility in the presence of free thiols was determined. The addition of a strong reducing agent, such as DTT, or a weaker reducing agent, L-cysteine, to an inhibited reaction can be used to out-compete the inhibitory agent and restore catalytic activity to an enzyme with an active-site thiol residue. Here, a similar approach was used by adding a reducing agent, either DTT or L-cysteine, to a reaction, in which AEP had been incubated with a specified inhibitor, in an attempt to reverse the effects of the inhibitor. […] For compounds BB1 and 38, this increase in enzymatic activity may be due to the reduction of a disulfide linkage between the inhibitor and the enzyme, since these compounds contain thiols. Compound 10 contains a thiocyanate and may undergoes nucleophilic attack by the enzyme's active-site thiolate to form a thioimidate enzyme-inhibitor complex. Under acidic conditions, this complex is reducible by either a strong reducing agent, such as DTT, or the weaker L-cysteine.

Data set [9] has as its target T3, AEP. Description: IC50 assay with purified recombinant AEP. The class given is biochemical. As to conditions: purified active AEP; read-out: IC50 toward AEP. The procedure:
Purified recombinant enzyme was incubated with various concentrations of inhibitor in appropriate assay buffers in the presence of increasing concentrations of inhibitor. The formation of fluorescent product was monitored in duplicate reactions and the data was fit to appropriate equations to calculate the IC50 values.
To identify small-molecule inhibitors of AEP, a high-throughput screen was designed in conjunction with the Emory Chemical Biology Discovery Center. The screen incorporated mouse kidney lysates to assay a 54,384 compound library. […] Additional structural analysis and grouping allowed the compounds to be sorted into 8 distinct backbone families. […] The specificity of the compounds was also determined using four major cysteine proteases (FIG. 2).
Various concentrations of the appropriate compound were incubated with AEP reaction buffer (50 mM Sodium Citrate pH 5.5, 0.1% CHAPS, 60 mM Na2HPO4, 1 mM EDTA, final pH 6.0) and peptide substrate, 10 μM Cbz-Ala-Ala-Asn-AMC (Bachem). The reaction was initiated upon addition of 50 nM AEP and fluorescent product formation was monitored over 15 min. […] Data were analyzed with GraFit version 5.0.11 software package.

Data set [10] concerns the target T3, AEP. Description: Time course inactivation assays. Format: biochemical. The method, then:
as §2, §3
Progress curves were generated by incubating 5 μM Z-AAN-AMC and the specified concentration of inhibitor in assay buffer at 37° C. for 10 min. The reaction was initiated by the addition of 50 nM AEP and quenched after 10 min. The concentration of the product was determined from an AMC standard curve and the data was fit by nonlinear regression. Since the curves were nonlinear, they were fit to equation 5, using the GraFit version 5.0.11 software package, [Product]=vi(1−e^−kobs.app*t)/kobs.app (eq 5), where vi is the initial velocity, kobs.app is the apparent pseudo-first order rate constant for inactivation, and t is time. Equation 6, kobs=[…] (eq 6), was used to correct the apparent pseudo-first-order inactivation rate constants, obtained from this analysis, for substrate concentration and the pseudo-first-order inactivation rate constants, i.e. kobs, thus obtained, were plotted against the tested inhibitor concentrations. […]

For another data set, the target named is Cathepsin-L (Homo sapiens, UniProt P07711). Description: Specificity assay against Cathepsin-L. The class given is biochemical.
Sequence of Cathepsin-L (P07711 114-333, species assumed): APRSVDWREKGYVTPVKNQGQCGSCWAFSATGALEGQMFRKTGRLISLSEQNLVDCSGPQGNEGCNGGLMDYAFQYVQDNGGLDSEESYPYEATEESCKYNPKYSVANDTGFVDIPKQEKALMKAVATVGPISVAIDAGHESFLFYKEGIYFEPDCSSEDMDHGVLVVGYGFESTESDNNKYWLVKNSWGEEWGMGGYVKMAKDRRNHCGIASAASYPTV

Molecules are shown by their SMILES.

From US10759803B2, “Asparagine endopeptidase (AEP) inhibitors for managing cancer and compositions related thereto” (priority 2014, dated 2020) come the findings set out here.

Sequence of CYP2C9 (P11712 whole entry): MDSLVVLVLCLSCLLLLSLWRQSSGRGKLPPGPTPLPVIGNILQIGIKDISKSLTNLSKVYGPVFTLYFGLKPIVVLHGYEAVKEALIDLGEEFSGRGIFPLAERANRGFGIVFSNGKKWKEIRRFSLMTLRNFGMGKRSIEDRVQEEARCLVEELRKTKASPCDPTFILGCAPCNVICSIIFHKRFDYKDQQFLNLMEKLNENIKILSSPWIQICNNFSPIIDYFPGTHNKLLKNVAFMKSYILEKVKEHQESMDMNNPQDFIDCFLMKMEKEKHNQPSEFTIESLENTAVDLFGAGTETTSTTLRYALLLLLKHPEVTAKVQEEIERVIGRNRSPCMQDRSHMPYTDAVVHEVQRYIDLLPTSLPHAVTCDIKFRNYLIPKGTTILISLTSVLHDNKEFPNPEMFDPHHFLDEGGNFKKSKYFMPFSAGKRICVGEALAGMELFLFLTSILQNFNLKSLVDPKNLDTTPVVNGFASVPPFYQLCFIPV
Sequence of CYP2C19 (P33261 whole entry): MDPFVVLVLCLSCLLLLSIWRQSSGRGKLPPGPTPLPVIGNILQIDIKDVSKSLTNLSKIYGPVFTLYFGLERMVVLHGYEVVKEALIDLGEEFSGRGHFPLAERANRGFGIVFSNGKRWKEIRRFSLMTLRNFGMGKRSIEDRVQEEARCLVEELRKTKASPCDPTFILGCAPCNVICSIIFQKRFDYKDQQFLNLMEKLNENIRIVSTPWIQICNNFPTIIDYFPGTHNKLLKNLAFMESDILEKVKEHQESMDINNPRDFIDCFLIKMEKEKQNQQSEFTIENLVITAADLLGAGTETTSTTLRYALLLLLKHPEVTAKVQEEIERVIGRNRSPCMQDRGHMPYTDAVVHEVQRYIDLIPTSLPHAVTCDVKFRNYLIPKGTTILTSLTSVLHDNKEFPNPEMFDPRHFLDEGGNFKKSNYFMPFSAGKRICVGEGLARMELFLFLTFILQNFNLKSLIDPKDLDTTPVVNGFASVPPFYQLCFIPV
Sequence of CYP3A4 (P08684 whole entry): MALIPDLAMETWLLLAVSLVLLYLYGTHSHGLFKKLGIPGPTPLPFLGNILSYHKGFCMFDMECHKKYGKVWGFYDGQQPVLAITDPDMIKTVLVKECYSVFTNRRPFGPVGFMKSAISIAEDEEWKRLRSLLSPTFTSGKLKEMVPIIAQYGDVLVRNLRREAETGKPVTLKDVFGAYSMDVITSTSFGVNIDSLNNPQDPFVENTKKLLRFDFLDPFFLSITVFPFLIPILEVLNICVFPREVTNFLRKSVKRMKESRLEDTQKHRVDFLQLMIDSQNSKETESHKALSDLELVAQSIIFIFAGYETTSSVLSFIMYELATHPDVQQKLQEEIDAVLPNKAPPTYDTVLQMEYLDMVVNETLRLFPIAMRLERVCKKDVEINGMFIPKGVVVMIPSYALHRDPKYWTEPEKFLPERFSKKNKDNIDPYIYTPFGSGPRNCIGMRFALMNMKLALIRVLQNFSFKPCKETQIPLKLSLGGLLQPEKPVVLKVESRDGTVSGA
Sequence of CYP2D6 (P10635 whole entry): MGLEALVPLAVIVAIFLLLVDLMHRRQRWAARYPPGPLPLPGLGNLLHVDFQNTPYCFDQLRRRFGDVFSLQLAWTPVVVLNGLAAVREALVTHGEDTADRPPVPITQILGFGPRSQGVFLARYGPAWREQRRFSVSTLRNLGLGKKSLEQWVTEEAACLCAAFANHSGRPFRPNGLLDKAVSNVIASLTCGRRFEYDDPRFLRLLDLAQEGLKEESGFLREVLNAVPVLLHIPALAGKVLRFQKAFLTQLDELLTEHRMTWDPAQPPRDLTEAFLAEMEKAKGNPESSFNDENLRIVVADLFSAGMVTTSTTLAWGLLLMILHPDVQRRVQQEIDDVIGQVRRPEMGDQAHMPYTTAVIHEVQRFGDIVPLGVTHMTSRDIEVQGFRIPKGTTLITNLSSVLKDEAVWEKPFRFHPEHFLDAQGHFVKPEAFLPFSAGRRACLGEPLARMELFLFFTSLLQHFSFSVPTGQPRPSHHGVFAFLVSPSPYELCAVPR
Description for Caco-2 monolayer: To explore the in vitro ADME profiles of the compounds, additional tests were conducted.

`Cc1cccc(NCc2ccc(O)c3ncccc23)c1C` [Compound 12]: the “Mean Remaining Parent (NADPH-free)” value in data set [1] is 1%; in [2], 0%. Moreover, the “Mean Remaining Parent (with NADPH)” value in data set [1] (30 min) and in data set [2] was 1% throughout. In addition, the CYP2D6 inhibition on CYP2D6 (3 μM) is 2.9%; at CYP2D6 (10 μM), −2.6%. Also, in the data set with AEP [3], the “AEP activity in OGD neurons” value is “slight decrease”. In addition, in data set [4] (1 μM compound), the “APP cleavage after OGD” value is reported as “blocked”. The “APP cleavage after OGD, dose dependence” value in data set [4] (FIG. 7E) was “dose-dependent decrease”. The CYP3A-Testosterone inhibition is reported as 14.2% in the data set with CYP3A (3 μM) and 27.6% in the data set on CYP3A (10 μM). Also, the CYP1A2 inhibition on CYP1A2 (3 μM) came out at 28.4%; at CYP1A2 (10 μM), 44.5%. The “A −>B Papp” value in the data set on Caco-2 monolayer was 1.4 10^−6 cm · s^−1. In the data set on Caco-2 monolayer, the “B −> A Papp” value is 3.7 10^−6 cm · s^−1. For the same compound, the RE in the data set with Caco-2 monolayer was 2.7. Besides, in data set [5], the Pe entry is “<LLOQ”. For the same compound, the CYP2C9 inhibition was 4.3% at CYP2C9 (3 μM) and −2.7% at CYP2C9 (10 μM). For the same compound, the CYP3A4-Midazolam inhibition at CYP3A4 (3 μM) and on CYP3A4 (10 μM) was −2.5% in each case. Further, the CYP2C19 inhibition at CYP2C19 (3 μM) is recorded as 13.4%; on CYP2C19 (10 μM), 29.4%.
One may read the IC50 as the concentration at which inhibition is half-maximal. `Sc1nnc(Nc2ccccc2)s1` [Compound BB1]: the “IC50 in intact Pala cells” value in [6] is “slightly larger IC50 values”. At AEP [7], the “inhibition constants in words” value is recorded as “nanomolar-range”. Moreover, the “AEP activity after addition of reducing agent (reversibility)” value on AEP [8] is reported as “regained a substantial amount of activity”. Besides, on AEP [9], the IC50 is around 130 nM. Moreover, on AEP [10], the “second-order rate constant, kinact/KI” value came to 3.3e+06 min⁻¹ M⁻¹. Further, the “selectivity for AEP over Cathepsin-L” value on Cathepsin-L was “about 38 fold”.
